Active and inactive are the calls of the source. The rule behind the calls is not given here.

These results are taken from ChEMBL document CHEMBL5584221, “Anti-inflammatory and Neuroprotective α-Pyrones from a Marine-Derived Strain of the Fungus Arthrinium arundinis and Their Heterologous Expression” (2024).

The subject of assay [1] is BV-2. In words: Antiinflammatory activity against mouse BV-2 cells assessed as inhibition of LPS-induced nitric oxide release at 20 uM measured after 24 hrs by Griess reagent based ELISA relative to control. Format: functional. (In general: The Griess reaction detects nitrite, a stable product of nitric oxide.)
Assay [2] relates to BV-2. In words: Antiinflammatory activity against mouse BV-2 cells assessed as inhibition of LPS-induced iNOS mRNA expression at 20 uM measured after 24 hrs by SYBR green staining based RT-PCR analysis. The format is functional, cell-based.
The test system of assay [3] is BV-2. In words: Antiinflammatory activity against mouse BV-2 cells assessed as inhibition of LPS-induced decrease of IL-4 at 2 to 20 uM measured after 24 hrs by ELISA. Format: functional, cell-based. Conditions: dose 2-20 µM. A general note: An ELISA detects its analyte on a solid surface through an enzyme-linked reagent.
Assay [4] relates to Cortical neurone. Put plainly: Neuroprotective activity against amyloid beta (25 to 35 residues)-induced cell death in ICR mouse primary cortical neurons assessed as increase in cell viability at 20 uM measured after 2 days by CCK-8 assay. Format: functional, cell-based. The following applies: time 2.0 day. (Tetrazolium assays rely on reduction of a dye to a coloured formazan, in cell work by metabolically active cells.)

Assay [5] relates to BV-2. In words: Antiinflammatory activity against mouse BV-2 cells assessed as effect on LPS-induced CD206 mRNA expression at 20 uM measured after 24 hrs by SYBR green staining based RT-PCR analysis. Format: functional, cell-based.
Assay [6] deals with Cortical neurone. In words: Neuroprotective activity against amyloid beta (25 to 35 residues)-induced neuritic atrophy in ICR mouse primary cortical neurons assessed as increase in length of MAP2-positive dendrite at 2 to 20 uM measured after 4 days by immunostaining based fluorescence microscopy. Conditions: dose 2-20 µM, time 4.0 day. The format is functional, cell-based.
Assay [7] concerns BV-2. Put plainly: Antiinflammatory activity against mouse BV-2 cells assessed as inhibition of LPS-induced TNF-alpha production at 2 to 20 uM measured after 24 hrs by ELISA. The format is functional, cell-based. The following applies: dose 2-20 µM.
Assay [8] has as its system BV-2. Put plainly: Antiinflammatory activity against mouse BV-2 cells assessed as inhibition of LPS-induced decrease of IL-10 at 2 to 20 uM measured after 24 hrs by ELISA. Conditions: dose 2-20 µM. Format: functional, cell-based.
The subject of assay [9] is BV-2. In words: Antiinflammatory activity against mouse BV-2 cells assessed as inhibition of LPS-induced IFN-gamma production at 2 to 20 uM measured after 24 hrs by ELISA. Format: functional, cell-based. The following applies: dose 2-20 µM.
The subject of assay [10] is BV-2. In words: Antiinflammatory activity against mouse BV-2 cells assessed as effect on LPS-induced TGFbeta mRNA expression at 20 uM measured after 24 hrs by SYBR green staining based RT-PCR analysis. Format: functional, cell-based.
Assay [11] concerns BV-2. In words: Antiinflammatory activity against mouse BV-2 cells assessed as effect on LPS-induced Arg1 mRNA expression at 20 uM measured after 24 hrs by SYBR green staining based RT-PCR analysis. Format: functional, cell-based.

What is called inhibition is how much of the control response was suppressed. With `CCC(C)(O)/C=C(\CO)CCCC(/C=C(C)/C=C(\C)C[C@@H](C)c1oc(=O)c(C)c(O)c1C)C(=O)O` (some centres undefined), the inhibition at 20 µM in the assay on BV-2 [1] is over 50%.

On to `CC1=C[C@@](CO)(CCCC(/C=C(C)/C=C(\C)C[C@@H](C)c2oc(=O)c(C)c(O)c2C)C(=O)O)O[C@H]1C` (some centres undefined), for which, in the assay on BV-2 [1], the inhibition at 20 µM is over 50%.

In the case of `CCC(C)/C=C(\CO)CCCC(/C=C(C)/C=C(\C)C[C@@H](C)c1oc(=O)c(C)c(O)c1C)C(=O)O` (some centres undefined), the inhibition at 20 µM in the assay with BV-2 [1] was over 50%.

As to `CC(=C\C(CCCc1cc(C)c(C)o1)C(=O)O)/C=C(\C)C[C@@H](C)c1oc(=O)c(C)c(O)c1C` (some centres undefined), the inhibition result in the assay on BV-2 [2], with BV-2 [3], in the assay on BV-2 [7], in the assay on BV-2 [8] and with BV-2 [9] was “Active” throughout. The result with Cortical neurone [4] and in the assay on Cortical neurone [6] was Active. Further, the outcome in the assay on BV-2 [5], in the assay with BV-2 [10] and in the assay with BV-2 [11] was inactive. Further, the inhibition at 20 µM with BV-2 [1] is over 50%.
